Test results: article PMC9029089, “1,5-Disubstituted Acylated 2-Amino-4,5-dihydroimidazoles as a New Class of Retinoic Acid Receptor–Related Orphan Receptor (ROR) Inhibitors” (International Journal of Molecular Sciences, 2022)
Like-named read-outs stand apart in the source and are kept apart here.

Tests used:
Type in all cases: cell-based
RORα = target: T1, RORα (Homo sapiens, UniProt P35398); assay: Gal4-RORα-LBD UAS-luciferase reporter assay in TRex-CHO-K1 cells (doxycycline-stimulated)
T1 construct: hRORα (Pro-211-end); expressed in transfected cells
T1 sequence (P35398 266-523): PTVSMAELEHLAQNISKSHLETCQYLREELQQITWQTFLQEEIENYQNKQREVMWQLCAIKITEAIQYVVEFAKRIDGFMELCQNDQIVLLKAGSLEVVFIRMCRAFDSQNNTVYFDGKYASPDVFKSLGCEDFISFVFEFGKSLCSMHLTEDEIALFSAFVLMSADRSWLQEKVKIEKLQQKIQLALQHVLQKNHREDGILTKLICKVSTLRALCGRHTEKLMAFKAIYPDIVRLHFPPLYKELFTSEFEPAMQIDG
Text: (§1) The Gal4-DBD-ROR-LBD fusion proteins were subcloned in the pcDNA4/TO expression vector (Thermo Scientific) and transfected into TRex-CHO-K1 cells (Thermo Scientific) for tetracycline-controlled expression of the corresponding ROR proteins. Transfected cells were selected with hygromycin and Zeocin and individual clones for each of the Gal4-RORγ, Gal4-RORα, and Gal4-RORβ cell lines were isolated using a standard serial dilution protocol. Clones with the highest doxycycline-dependent stimulation of luciferase activity were selected for all functional experiments.
(§2) For screening FIU libraries, cells were resuspended in Ham’s F-12 assay medium containing 2% charcoal-treated FBS and no selection drugs. […] Cells were allowed to attach for 2 h, followed by compound treatment and stimulation with 20 ng/mL doxycycline for an additional 16–20 h. Appropriate solvent controls, negative controls with no doxycycline, and blanks with no cells were included in every plate. Prior to measuring luciferase activity, 6 µL of 0.15 mg/mL resazurin (Cayman Chemical) in PBS were added and cells were incubated for 1 h at 37 °C. Fluorescence intensity was detected at 545 nm excitation/590 nm emission using a CLARIOstar reader (BMGLabtech) as a measure of cell viability, to identify any potential cytotoxic effect of test compounds and mixtures.
(§3) Luminescence was normalized by the fluorescence intensity and the percentage of inhibition was calculated with respect to control cells stimulated with doxycycline in the presence of solvent control (0.1% DMF). All primary screens with individual compounds were performed in triplicate with a final concentration of 5 µg/mL. […] IC50 values were calculated using GraphPrism (GraphPad software).

RORγ [1] = target: T2, RORγ (Mus musculus, UniProt P51450); assay: Gal4-RORγ-LBD UAS-luciferase reporter assay in TRex-CHO-K1 cells (doxycycline-stimulated); settings: library 2520, RORγ cells
T2 construct: mRORγ (Pro-261-end); expressed in transfected cells
T2 sequence (P51450 261-516 limits assumed): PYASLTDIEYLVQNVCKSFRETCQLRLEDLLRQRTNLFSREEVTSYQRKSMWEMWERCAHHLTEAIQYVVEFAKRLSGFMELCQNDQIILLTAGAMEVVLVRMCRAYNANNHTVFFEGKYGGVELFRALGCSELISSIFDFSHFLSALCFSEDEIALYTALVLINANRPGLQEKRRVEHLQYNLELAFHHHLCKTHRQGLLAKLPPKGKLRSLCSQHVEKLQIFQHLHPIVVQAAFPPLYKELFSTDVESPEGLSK

RORγ [2] = target: T2, RORγ; assay: as above
Text: as §1, §2, §3

RORβ = target: T3, RORβ (Rattus norvegicus, UniProt P45446); assay: Gal4-RORβ-LBD UAS-luciferase reporter assay in TRex-CHO-K1 cells (doxycycline-stimulated)
T3 construct: rRORβ (Pro 205-end); expressed in transfected cells
T3 sequence (P45446 205-459 isoform P45446-1): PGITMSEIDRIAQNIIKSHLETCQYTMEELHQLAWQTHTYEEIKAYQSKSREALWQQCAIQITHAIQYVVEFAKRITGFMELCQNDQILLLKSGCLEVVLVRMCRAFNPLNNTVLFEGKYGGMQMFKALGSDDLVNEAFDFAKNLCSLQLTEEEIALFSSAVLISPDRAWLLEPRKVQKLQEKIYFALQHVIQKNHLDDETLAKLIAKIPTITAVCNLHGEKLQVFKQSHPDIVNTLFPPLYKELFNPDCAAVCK
Text: To investigate the transcriptional activity of all three RORs, we generated stable cell lines expressing an UAS-driven luciferase reporter together with the corresponding Gal4-DNA binding domain fused to the ligand binding domains (LBDs) of mRORγ (Pro-261-end), hRORα (Pro-211-end), or rRORβ (Pro 205-end). The Gal4-DBD-ROR-LBD fusion proteins were subcloned in the pcDNA4/TO expression vector (Thermo Scientific) and transfected into TRex-CHO-K1 cells (Thermo Scientific) for tetracycline-controlled expression of the corresponding ROR proteins. Transfected cells were selected with hygromycin and Zeocin and individual clones for each of the Gal4-RORγ, Gal4-RORα, and Gal4-RORβ cell lines were isolated using a standard serial dilution protocol. Clones with the highest doxycycline-dependent stimulation of luciferase activity were selected for all functional experiments. All cell lines were maintained in complete Ham’s F12 medium containing 10% fetal bovine serum (FBS), 10 µg/mL blasticidine, 100 µg/mL hygromycin, and 100 µg/mL Zeocin and were used within 2 months of culture without any loss of doxycycline-dependent stimulation of luciferase activity.
For screening FIU libraries, cells were resuspended in Ham’s F-12 assay medium containing 2% charcoal-treated FBS and no selection drugs. Ten thousand cells per well were seeded in 30 µL of assay medium in 384 white plates with clear bottom (Greiner). Cells were allowed to attach for 2 h, followed by compound treatment and stimulation with 20 ng/mL doxycycline for an additional 16–20 h. Appropriate solvent controls, negative controls with no doxycycline, and blanks with no cells were included in every plate. Prior to measuring luciferase activity, 6 µL of 0.15 mg/mL resazurin (Cayman Chemical) in PBS were added and cells were incubated for 1 h at 37 °C. Fluorescence intensity was detected at 545 nm excitation/590 nm emission using a CLARIOstar reader (BMGLabtech) as a measure of cell viability, to identify any potential cytotoxic effect of test compounds and mixtures. Following the resazurin assay, the medium was removed and 20 µL of BriteLite-Plus luciferase reagent (Perking Elmer) were added; luminescence was measured in a CLARIOstar reader using a 384 aperture spoon and a 0.1 sec measuring time interval.
as §3

[3] = read-out: IC50 (μM, N=4) ROR-Alpha, library 2520
[4] = read-out: IC50 (μM, N=4) ROR-Gamma, library 2520
[5] = read-out: IC50 (μM, N=4) ROR-Beta, library 2520
[6] = IC50 (μM) (N=4) RORα, individual controls of library 1295, second confirmatory dose response, Figure 2
[7] = individual controls of library 1295, second confirmatory dose response, Figure 2
[8] = IC50 (μM) (N=4) RORβ, individual controls of library 1295, second confirmatory dose response, Figure 2
[9] = IC50 (μM) (N=4) RORγ, individual controls of library 1295, second confirmatory dose response, Figure 2
[10] = T-REx-CHO-K1, read-out: % Inhibition RORγ 5 μg/ml

Row | IC50 (RORα; [3]) | % Inhibition at 4 μM (N=3) (RORγ [1]) | IC50 (RORγ [2]; [4]) | IC50 (RORβ; [5]) | Structure (SMILES) | other results
1 | 10.3 ± 0.4 µM | 67.6% | 7.55 ± 0.5 µM | 7.3 ± 0.8 µM | CCC(C(=O)NC1=NCC(Cc2ccc3ccccc3c2)N1CCC1CC2CCC1C2)c1ccccc1 (mixture of isomers) [2520.11] | 
2 | 5.97 ± 0.2 µM | 43.6% | 4.69 ± 0.2 µM | 3.66 ± 0.3 µM | CCC(C(=O)NC1=NCC(C(C)CC)N1CC1CCCCC1)c1ccccc1 (mixture of isomers) [2520.15] | 
3 | 6.61 ± 0.3 µM | 97.7% | 4.8 ± 0.2 µM | 4.89 ± 0.3 µM | CCC(C(=O)NC1=NCC(Cc2ccccc2)N1CC1CCCCC1)c1ccccc1 (mixture of isomers) [2520.27] | 
4 | 8.48 ± 0.4 µM | 69.8% | 6.37 ± 0.4 µM | 6.17 ± 0.3 µM | CC(C)C(=O)NC1=NCC(Cc2ccccc2)N1CCC(C)c1ccccc1 (mixture of isomers) [2520.28] | 
5 |  | -21.7% |  |  | CCC(C(=O)NC1=NCC(Cc2ccccc2)N1CCC1CC2CCC1C2)c1ccccc1 (mixture of isomers) [2520.35] | 
6 |  | -22.6% |  |  | CCOc1ccc(CC2CN=C(NC(=O)Cc3ccc(OC)cc3)N2CCC2CC3CCC2C3)cc1 (mixture of isomers) [2520.38] | 
7 |  | -8.1% |  |  | CCOc1ccc(CC2CN=C(NC(=O)C(C)C)N2CCC(C)c2ccccc2)cc1 (mixture of isomers) [2520.40] | 
8 |  | -5.4% |  |  | CCOc1ccc(CC2CN=C(NC(=O)C(CC)c3ccccc3)N2CCC(C)c2ccccc2)cc1 (mixture of isomers) [2520.43] | 
9 |  | -20.0% |  |  | CCOc1ccc(CC2CN=C(NC(=O)C(C)C)N2CCC2CC3CCC2C3)cc1 (mixture of isomers) [2520.44] | 
10 | 5.82 ± 0.3 µM | 67.3% | 5.31 ± 0.2 µM | 5.46 ± 0.3 µM | CCOc1ccc(CC2CN=C(NC(=O)Cc3ccc(OC)cc3)N2CCC(C)c2ccccc2)cc1 (mixture of isomers) [2520.46] | 
11 |  |  |  |  | O=C(Cc1ccccc1)NC1=NC[C@H](Cc2ccccc2)N1CCc1ccc(-c2ccccc2)cc1 [1295.248] | IC50 (RORα; [6]): 10.1 µM; inhibition at 5 µg/mL (RORγ [2]; T-REx-CHO-K1, individual controls 1295.201-307, 5 μg/ml, triplicate, read-out: % Inhibition RORγ 5 μg/ml): 91.5%; selectivity towards RORγ over RORα and RORβ (RORγ [2]; from IC50 values in reporter cells): two-fold selectivity; IC50 (RORγ [2]; [7]): 5 µM; IC50 (RORβ; [8]): 12.1 µM
12 |  |  |  |  | O=C(Cc1ccccc1)NC1=NC[C@H](Cc2ccccc2)N1CCC1CCCCC1 [1295.261] | IC50 (RORα; [6]): 15.3 ± 1.7 µM; IC50 (RORγ [2]; [9]): 17.2 ± 1.6 µM; inhibition at 5 µg/mL (RORγ [2]; [10]): 95.9%; IC50 (RORβ; [8]): 17.1 ± 2.6 µM
13 |  |  |  |  | O=C(Cc1ccccc1)NC1=NC[C@H](Cc2ccccc2)N1CCCC1CCCCC1 [1295.268] | IC50 (RORα; [6]): 10.1 ± 0.4 µM; inhibition at 5 µg/mL (RORγ [2]; [10]): 103%; IC50 (RORγ [2]; [7]): 6.2 ± 0.6 µM; IC50 (RORβ; [8]): 10.4 ± 0.8 µM
14 |  |  |  |  | CC1CCC(CN2C(NC(=O)Cc3ccccc3)=NC[C@@H]2Cc2ccccc2)CC1 (stereo partly drawn) [1295.269] | IC50 (RORα; [6]): 9 ± 0.3 µM; IC50 (RORγ [2]; [9]): 5.8 ± 0.6 µM; inhibition at 5 µg/mL (RORγ [2]; [10]): 104%; IC50 (RORβ; [8]): 9.3 ± 0.8 µM
